According to patent publication US20260308159A1, “BICYCLIC HETEROARYLAMIDES HAVING GPR68 MODULATING ACTIVITY” (RECURSION PHARMACEUTICALS, INC., priority 2023, published 2026):

molecular target: T1, human GPR68 (Homo sapiens, UniProt Q15743); assay: GPR68 Biochemical Assay (Promega GloSensor cAMP assay, GPR68 antagonism); assay type: cell-based; settings: HEK293T cells transiently expressing hGPR68, antagonism of pH 5.5 stimulated cAMP, 15 min, read-out: hGPR68 IC50
T1 construct: encoding full-length human GPR68 (uniprot ID: Q15743); expressed in transfected cells; host or cells: HEK293T
T1 sequence (Q15743 whole entry): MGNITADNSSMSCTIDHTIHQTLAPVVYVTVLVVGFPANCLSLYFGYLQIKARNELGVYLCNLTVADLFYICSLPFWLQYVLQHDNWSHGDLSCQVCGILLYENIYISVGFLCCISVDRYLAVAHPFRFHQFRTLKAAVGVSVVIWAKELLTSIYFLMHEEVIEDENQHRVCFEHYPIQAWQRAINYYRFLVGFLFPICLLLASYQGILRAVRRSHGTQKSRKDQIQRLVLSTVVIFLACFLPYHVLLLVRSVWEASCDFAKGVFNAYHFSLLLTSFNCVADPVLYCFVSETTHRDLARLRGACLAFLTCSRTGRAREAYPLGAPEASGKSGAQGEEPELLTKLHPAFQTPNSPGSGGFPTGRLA
Summary of the method: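 HEK293T cells transiently co-transfected with full-length human GPR68 and GloSensor plasmids, preloaded 60 min with GloSensor substrate in pH 8.0 buffer. Compounds (9-point half-log series, top 50 μM final, 0.5% DMSO) added with pH 5.5 buffer (~EC80-90 stimulation); luminescence read after 15 min at room temperature. IC50 from sigmoidal fit of % inhibition.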

Structure (SMILES)	IC50 [nM]
NC(=O)c1c(OCC2CC2)nn2c(C(=O)N[C@H]3C[C@@H](OC(F)(F)F)C3)ccnc12 [Compound 162, 2-(cyclopropylmethoxy)-N7-[cis-3-(trifluoromethoxy)cyclobutyl]pyrazolo[1,5-a]pyrimidine-3,7-dicarboxamide]	50 to 500
NC(=O)c1cnn2c(C(=O)NC3CCC(F)(F)CC3)ccnc12 [Compound 103, N7-(4,4-difluorocyclohexyl)pyrazolo[1,5-a]pyrimidine-3,7-dicarboxamide]	500 to 5000
COCc1nn2c(C(=O)NC3Cc4cccnc4C3)ccnc2c1C(N)=O (single isomer, unassigned) [Compound 146, N7-(6,7-dihydro-5H-cyclopenta[b]pyridin-6-yl)-2-(methoxymethyl)pyrazolo[1,5-a]pyrimidine-3,7-dicarboxamide]	50 to 500
NC(=O)c1cnn2c(C(=O)NCCC(F)(F)F)ccnc12 [Compound 100, N7-(3,3,3-trifluoropropyl)pyrazolo[1,5-a]pyrimidine-3,7-dicarboxamide]	5000 to 50000
COCc1nn2c(C(=O)NC3CCC(F)(F)c4ccccc43)cc(C)nc2c1C(N)=O (centres unmarked) [Compound 226, N7-(4,4-difluorotetralin-1-yl)-2-(methoxymethyl)-5-methyl-pyrazolo[1,5-a]pyrimidine-3,7-dicarboxamide]	< 50
COCc1nn2c(C(=O)NC3CCc4cncn4C3)ccnc2c1C(N)=O (centres unmarked) [Compound 188, 2-(methoxymethyl)-N7-(5,6,7,8-tetrahydroimidazo[1,5-a]pyridin-6-yl)pyrazolo[1,5-a]pyrimidine-3,7-dicarboxamide]	500 to 5000
COCc1nc2c(C(=O)N[C@H]3C[C@@H](OC(F)(F)F)C3)ccnn2c1C(N)=O [Compound 55, 2-(methoxymethyl)-N8-[cis-3-(trifluoromethoxy)cyclobutyl]imidazo[1,2-b]pyridazine-3,8-dicarboxamide]	50 to 500
COCc1nn2c(C(=O)NC3Cc4cscc4C3)ccnc2c1C(N)=O [Compound 85, N7-(5,6-dihydro-4H-cyclopenta[c]thiophen-5-yl)-2-(methoxymethyl)pyrazolo[1,5-a]pyrimidine-3,7-dicarboxamide]	< 50
Cc1nn2c(C(=O)NC3CC(F)(F)C3)c(-c3cn[nH]c3)cnc2c1C(N)=O [Compound 32, N7-(3,3-difluorocyclobutyl)-2-methyl-6-(1H-pyrazol-4-yl)pyrazolo[1,5-a]pyrimidine-3,7-dicarboxamide]	500 to 5000
NC(=O)c1c(C2CC2)nn2c(C(=O)NC3Cc4ccccc4C3)ccnc12 [Compound 130, 2-cyclopropyl-N7-indan-2-yl-pyrazolo[1,5-a]pyrimidine-3,7-dicarboxamide]	< 50
NC(=O)c1cnn2c(C(=O)N[C@H]3C[C@@H](OC(F)(F)F)C3)ccnc12 [Compound 18, N7-[cis-3-(trifluoromethoxy)cyclobutyl]pyrazolo[1,5-a]pyrimidine-3,7-dicarboxamide]	500 to 5000
COCc1nn2c(C(=O)NC3COc4cc(F)cc(F)c43)ccnc2c1C(N)=O (centres unmarked) [Compound 153, N7-(4,6-difluoro-2,3-dihydrobenzofuran-3-yl)-2-(methoxymethyl)pyrazolo[1,5-a]pyrimidine-3,7-dicarboxamide]	< 50
COCc1nn2c(C(=O)N[C@H]3C[C@H](C)C3)ccnc2c1C(N)=O [Compound 86, 2-(methoxymethyl)-N7-(trans-3-methylcyclobutyl)pyrazolo[1,5-a]pyrimidine-3,7-dicarboxamide]	50 to 500
CC(COc1ccc(C(C)(C)C)cc1)NC(=O)c1ccnc2c(C(N)=O)cnn12 (centres unmarked) [Compound 99, N7-[1-(4-tert-butylphenoxy)propan-2-yl]pyrazolo[1,5-a]pyrimidine-3,7-dicarboxamide]	5000 to 50000
CCCc1nn2c(C(=O)N[C@H]3C[C@@H](OC(F)(F)F)C3)ccnc2c1C(N)=O [Compound 137, 2-propyl-N7-[cis-3-(trifluoromethoxy)cyclobutyl]pyrazolo[1,5-a]pyrimidine-3,7-dicarboxamide]	< 50
COCc1nn2c(C(=O)NC3CCC(F)(F)c4ccccc43)ccnc2c1C(N)=O (centres unmarked) [Compound 116, N7-(4,4-difluorotetralin-1-yl)-2-(methoxymethyl)pyrazolo[1,5-a]pyrimidine-3,7-dicarboxamide]	< 50
NC(=O)c1cnn2c(C(=O)NC3CCc4ccncc4C3)ccnc12 (centres unmarked) [Compound 13, N7-(5,6,7,8-tetrahydroisoquinolin-7-yl)pyrazolo[1,5-a]pyrimidine-3,7-dicarboxamide]	50000 to 100000
NC(=O)c1c(C2CC2)nn2c(C(=O)NCc3ccc(F)cc3)ccnc12 [Compound 140, 2-cyclopropyl-N7-[(4-fluorophenyl)methyl]pyrazolo[1,5-a]pyrimidine-3,7-dicarboxamide]	< 50

Structure (SMILES)	IC50 [nM]
Cc1nn2c(C(=O)NC3Cc4ccncc4C3)ccnc2c1C(N)=O (centres unmarked) [Compound 52, N7-(6,7-dihydro-5H-cyclopenta[c]pyridin-6-yl)-2-methyl-pyrazolo[1,5-a]pyrimidine-3,7-dicarboxamide]	5000 to 50000
Cc1cccc2c1CC(NC(=O)c1ccnc3c(C(N)=O)cnn13)C2 (centres unmarked) [Compound 2, N7-(4-methylindan-2-yl)pyrazolo[1,5-a]pyrimidine-3,7-dicarboxamide]	50 to 500
COCc1nn2c(C(=O)N[C@H]3CCS(=O)(=O)c4ccccc43)ccnc2c1C(N)=O (single isomer, unassigned) [Compound 234]	< 50
CCOCc1nn2c(C(=O)N[C@H]3C[C@@H](OC(F)(F)F)C3)ccnc2c1C(N)=O [Compound 205, 2-(ethoxymethyl)-N7-[cis-3-(trifluoromethoxy)cyclobutyl]pyrazolo[1,5-a]pyrimidine-3,7-dicarboxamide]	50 to 500
COCc1nn2c(C(=O)N[C@H]3COc4cc(F)ccc43)ccnc2c1C(N)=O [Compound 128, 2-(methoxymethyl)-N7-[(3R)-6-fluoro-2,3-dihydrobenzofuran-3-yl]pyrazolo[1,5-a]pyrimidine-3,7-dicarboxamide]	< 50
CCOCc1nn2c(C(=O)NC3Cc4ccccc4C3)ccnc2c1C(N)=O [Compound 202, 2-(ethoxymethyl)-N7-indan-2-yl-pyrazolo[1,5-a]pyrimidine-3,7-dicarboxamide]	< 50
NC(=O)c1c(C2CC2)nn2c(C(=O)NC3CS(=O)(=O)c4ccccc43)ccnc12 (centres unmarked) [Compound 231, 2-cyclopropyl-N7-(1,1-dioxo-2,3-dihydrobenzothiophen-3-yl)pyrazolo[1,5-a]pyrimidine-3,7-dicarboxamide]	< 50
COCc1nn2c(C(=O)NC3Cc4cc(F)cc(F)c4C3)ccnc2c1C(N)=O (centres unmarked) [Compound 92, N7-(4,6-difluoroindan-2-yl)-2-(methoxymethyl)pyrazolo[1,5-a]pyrimidine-3,7-dicarboxamide]	< 50
CNC(=O)c1c(-c2ccccc2)nn2c(C(=O)NC3Cc4ccccc4C3)cccc12 [Compound 40, N7-indan-2-yl-N3-methyl-2-phenyl-pyrazolo[1,5-a]pyridine-3,7-dicarboxamide]	50000 to 100000
COCc1nn2c(C(=O)NCC3CCC(F)(F)CC3)ccnc2c1C(N)=O [Compound 133, N7-[(4,4-difluorocyclohexyl)methyl]-2-(methoxymethyl)pyrazolo[1,5-a]pyrimidine-3,7-dicarboxamide]	< 50
COCc1nn2c(C(=O)NC3Cc4ccc(F)cc4C3)ccnc2c1C(N)=O (centres unmarked) [Compound 194, N7-(5-fluoroindan-2-yl)-2-(methoxymethyl)pyrazolo[1,5-a]pyrimidine-3,7-dicarboxamide]	< 50
Cc1nn2c(C(=O)NC3CC(F)(F)C3)ccnc2c1C(N)=O [Compound 48, N7-(3,3-difluorocyclobutyl)-2-methyl-pyrazolo[1,5-a]pyrimidine-3,7-dicarboxamide]	50 to 500
COCc1nn2c(C(=O)NC3Cc4ccccc4C3)ccnc2c1C(=O)O [Compound 143, 7-(indan-2-ylcarbamoyl)-2-(methoxymethyl)pyrazolo[1,5-a]pyrimidine-3-carboxylic Acid]	50 to 500
COCc1nn2c(C(=O)NC3(C)CCc4ccccc43)ccnc2c1C(N)=O (centres unmarked) [Compound 155, 2-(methoxymethyl)-N7-(1-methylindan-1-yl)pyrazolo[1,5-a]pyrimidine-3,7-dicarboxamide]	50 to 500
COCc1nn2c(C(=O)N[C@H]3CCOc4ccccc43)ccnc2c1C(N)=O [Compound 172, N7-[(4S)-chroman-4-yl]-2-(methoxymethyl)pyrazolo[1,5-a]pyrimidine-3,7-dicarboxamide]	50 to 500
COCc1nn2c(C(=O)N[C@@H]3COc4cc(F)ccc43)ccnc2c1C(N)=O [Compound 167, N7-[(3S)-6-fluoro-2,3-dihydrobenzofuran-3-yl]-2-(methoxymethyl)pyrazolo[1,5-a]pyrimidine-3,7-dicarboxamide]	< 50
COCc1nn2c(C(=O)NCC3CC3(C)C)ccnc2c1C(N)=O (centres unmarked) [Compound 77, N7-[(2,2-dimethylcyclopropyl)methyl]-2-(methoxymethyl)pyrazolo[1,5-a]pyrimidine-3,7-dicarboxamide]	500 to 5000
NC(=O)c1c(C2CC2)nn2c(C(=O)NC3Cc4cccnc4C3)ccnc12 (centres unmarked) [Compound 115, 2-cyclopropyl-N7-(6,7-dihydro-5H-cyclopenta[b]pyridin-6-yl)pyrazolo[1,5-a]pyrimidine-3,7-dicarboxamide]	< 50

same assay, conditions: hGPR68 IC50, HEK293T cells transiently expressing hGPR68, antagonism of pH 5.5 stimulated cAMP, 15 min

Structure (SMILES)	IC50 [nM]
NC(=O)c1c(C2CCCO2)nn2c(C(=O)NC3CC(F)(F)C3)ccnc12 (centres unmarked) [Compound 43, N7-(3,3-difluorocyclobutyl)-2-tetrahydrofuran-2-yl-pyrazolo[1,5-a]pyrimidine-3,7-dicarboxamide]	50 to 500
COCc1nn2c(C(=O)N[C@H]3C[C@](C)(F)C3)ccnc2c1C(N)=O [Compound 94, N7-(trans-3-fluoro-3-methyl-cyclobutyl)-2-(methoxymethyl)pyrazolo[1,5-a]pyrimidine-3,7-dicarboxamide]	50 to 500
